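GI50 = concentration required for 50% inhibition of growth. TGI: total growth inhibition.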
Tests used:
Assay in all cases: growth of human tumour cells (NCI), 384-well format
[1] = test system: 786-0 renal
[2] = test system: A498 renal
[3] = test system: A549 NSCLC
[4] = test system: ACHN renal
[5] = test system: BT-549 breast
[6] = test system: CAKI-1 renal
[7] = test system: CCRF-CEM leukemia
[8] = test system: COLO 205 colon
[9] = test system: DU-145 prostate
[10] = test system: EKVX NSCLC
[11] = test system: HCT-116 colon
[12] = test system: HCT-15 colon
[13] = test system: HL-60(TB) leukemia
[14] = test system: HOP-62 NSCLC
[15] = test system: HOP-92 NSCLC
[16] = test system: HS 578T breast
[17] = test system: HT29 colon
[18] = test system: IGROV1 ovarian
[19] = test system: K-562 leukemia
[20] = test system: KM12 colon
[21] = test system: LOX IMVI melanoma
[22] = test system: M14 melanoma
[23] = test system: MALME-3M melanoma
[24] = test system: MCF7 breast
[25] = test system: MDA-MB-231 breast
[26] = test system: MDA-MB-435 melanoma
[27] = test system: MDA-MB-468 breast
[28] = test system: MOLT-4 leukemia
[29] = test system: NCI-H226 lung
[30] = test system: NCI-H23 lung
[31] = test system: NCI-H322M lung
[32] = test system: NCI-H460 NSCLC
[33] = test system: NCI-H522 lung
[34] = test system: NCI/ADR-RES ovarian
[35] = test system: OVCAR-3 ovarian
[36] = test system: OVCAR-4 ovarian
[37] = test system: OVCAR-5 ovarian
[38] = test system: PC-3 prostate
[39] = test system: RPMI-8226 leukemia
[40] = test system: RXF 393 renal
[41] = test system: SF-268 CNS
[42] = test system: SF-295 CNS
[43] = test system: SF-539 CNS
[44] = test system: SK-MEL-2 melanoma
[45] = test system: SK-MEL-28 melanoma
[46] = test system: SK-MEL-5 melanoma
[47] = test system: SK-OV-3 ovarian
[48] = test system: SN12C renal
[49] = test system: SNB-19 CNS
[50] = test system: SNB-75 CNS
[51] = test system: SR leukemia
[52] = test system: SW-620 colon
[53] = test system: T-47D breast
[54] = test system: TK-10 renal
[55] = test system: U251 glioblastoma
[56] = test system: UACC-257 melanoma
[57] = test system: UACC-62 melanoma
[58] = test system: UO-31 renal

C[C@@H](Oc1ccc(Oc2cnc3ccc(Cl)cc3n2)cc1)C(=O)O
GI50 [1]: > 100 µM
TGI [1]: > 100 µM
GI50 [2]: 86.9 µM
TGI [2]: > 100 µM
GI50 [3]: 42.6 µM
TGI [3]: > 100 µM
GI50 [4]: 32.1 µM
TGI [4]: > 100 µM
GI50 [5]: 58.3 µM
TGI [5]: > 100 µM
GI50 [6]: 85.3 µM
TGI [6]: > 100 µM
GI50 [7]: 3.68 µM
TGI [7]: > 100 µM
GI50 [8]: 28.6 µM
TGI [8]: > 100 µM
GI50 [9]: 45.4 µM
TGI [9]: > 100 µM
GI50 [10]: > 100 µM
TGI [10]: > 100 µM
GI50 [11]: 77.4 µM
TGI [11]: > 100 µM
GI50 [12]: 73.7 µM
TGI [12]: > 100 µM
GI50 [13]: 4.5 µM
TGI [13]: 26.1 µM
GI50 [14]: 43.3 µM
TGI [14]: > 100 µM
GI50 [15]: 96.4 µM
TGI [15]: > 100 µM
GI50 [16]: > 100 µM
TGI [16]: > 100 µM
GI50 [17]: > 100 µM
TGI [17]: > 100 µM
GI50 [18]: 73.1 µM
TGI [18]: > 100 µM
GI50 [19]: 53.3 µM
TGI [19]: > 100 µM
GI50 [20]: > 100 µM
TGI [20]: > 100 µM
GI50 [21]: > 100 µM
TGI [21]: > 100 µM
GI50 [22]: > 100 µM
TGI [22]: > 100 µM
GI50 [23]: > 100 µM
TGI [23]: > 100 µM
GI50 [24]: 22.5 µM
TGI [24]: > 100 µM
GI50 [25]: > 100 µM
TGI [25]: > 100 µM
GI50 [26]: > 100 µM
TGI [26]: > 100 µM
GI50 [27]: 24.8 µM
TGI [27]: > 100 µM
GI50 [28]: 1.46 µM
TGI [28]: 2.82 µM
GI50 [29]: > 100 µM
TGI [29]: > 100 µM
GI50 [30]: > 100 µM
TGI [30]: > 100 µM
GI50 [31]: > 100 µM
TGI [31]: > 100 µM
GI50 [32]: 6.16 µM
TGI [32]: > 100 µM
GI50 [33]: 25.9 µM
TGI [33]: > 100 µM
GI50 [34]: 78.3 µM
TGI [34]: > 100 µM
GI50 [35]: > 100 µM
TGI [35]: > 100 µM
GI50 [36]: > 100 µM
TGI [36]: > 100 µM
GI50 [37]: > 100 µM
TGI [37]: > 100 µM
GI50 [38]: > 100 µM
TGI [38]: > 100 µM
GI50 [39]: > 100 µM
TGI [39]: > 100 µM
GI50 [40]: 97.5 µM
TGI [40]: > 100 µM
GI50 [41]: > 100 µM
TGI [41]: > 100 µM
GI50 [42]: 33.2 µM
TGI [42]: > 100 µM
GI50 [43]: 97.1 µM
TGI [43]: > 100 µM
GI50 [44]: > 100 µM
TGI [44]: > 100 µM
GI50 [45]: > 100 µM
TGI [45]: > 100 µM
GI50 [46]: 62.5 µM
TGI [46]: > 100 µM
GI50 [47]: > 100 µM
TGI [47]: > 100 µM
GI50 [48]: > 100 µM
TGI [48]: > 100 µM
GI50 [49]: > 100 µM
TGI [49]: > 100 µM
GI50 [50]: > 100 µM
TGI [50]: > 100 µM
GI50 [51]: 1.71 µM
TGI [51]: 4.65 µM
GI50 [52]: 43.4 µM
TGI [52]: > 100 µM
GI50 [53]: > 100 µM
TGI [53]: > 100 µM
GI50 [54]: 61.4 µM
TGI [54]: > 100 µM
GI50 [55]: 63.9 µM
TGI [55]: > 100 µM
GI50 [56]: > 100 µM
TGI [56]: > 100 µM
GI50 [57]: 36.5 µM
TGI [57]: > 100 µM
GI50 [58]: 87.1 µM
TGI [58]: > 100 µM

Reference: PubChem BioAssay (NCI)
